Values quoted from earlier work as cited in article PMC5131319, “Occurrence, temporal trends, and half-lives of perfluoroalkyl acids (PFAAs) in occupational workers in China” (Scientific Reports, 2016).

Settings: humans; cited from earlier work

O=S(=O)(O)C(F)(F)C(F)(F)C(F)(F)C(F)(F)F [PFBS, perfluorobutanesulfonate]
Half-life based on serum concentrations: 26 days
